The record followed here is US8815007B2, “Alkoxylated polyamines and polyetheramine polyol compositions for foam control” (priority 2007, dated 2014).

The data set is described as follows: Equilibrium surface tension, double-probe bubble tensiometer. It is filed as physicochemical. To be noted: one bubble per second. How it is done: The antifoaming properties of the above compositions were evaluated using the blender foam test as described below. Surface tensions were determined using a […] OC-6000 double-probe bubble tensiometer. Equilibrium surface tensions were determined on 0.1% active solutions in deionized water at 25° C. by using a bubble rate of one bubble per second. […] Surface tension measurements were carried out using a Sensation QC-6000 double-probe bubble tensiometer from the Sensation Division of Chem-Dyne Research Corp. of Mesa, Ariz.

The substance “diethylenetriamine/2 mol 1-epoxyoctane adduct [Example 2]” displayed a Surface Tension (Table 2, 0.1% active solutions in deionized water at 25° C.) of 36.2 mN/m and a Surface Tension (Table 3, 0.1% active solutions in deionized water at 25 deg C.) of 36.2 mN/m.
